From ChEMBL document CHEMBL1908284, “Rational use of in vitro P-glycoprotein assays in drug discovery” (J Pharmacol Exp Ther, 2001)

Experiments:
[1] = biological target: T1, ATP-dependent translocase ABCB1 (MDR1) (Homo sapiens, UniProt P08183); assay: in vitro; conditions: dog
[2] = biological target: T1, ATP-dependent translocase ABCB1 (MDR1); assay: in vitro; conditions: dog; remark: listed apart in the source
[3] = biological target: ATP-dependent translocase ABCB1 (Homo sapiens, UniProt P08183); conditions: spodoptera frugiperda, sf9, 20 µM;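 further: Compound-stimulated ATPase activity measured in membrane preparations of MDR1-expressing Sf9 cells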
[4] = biological target: T1, ATP-dependent translocase ABCB1 (MDR1); assay: in vitro; conditions: dog; remark: listed apart in the source

T1 sequence (P08183 whole entry): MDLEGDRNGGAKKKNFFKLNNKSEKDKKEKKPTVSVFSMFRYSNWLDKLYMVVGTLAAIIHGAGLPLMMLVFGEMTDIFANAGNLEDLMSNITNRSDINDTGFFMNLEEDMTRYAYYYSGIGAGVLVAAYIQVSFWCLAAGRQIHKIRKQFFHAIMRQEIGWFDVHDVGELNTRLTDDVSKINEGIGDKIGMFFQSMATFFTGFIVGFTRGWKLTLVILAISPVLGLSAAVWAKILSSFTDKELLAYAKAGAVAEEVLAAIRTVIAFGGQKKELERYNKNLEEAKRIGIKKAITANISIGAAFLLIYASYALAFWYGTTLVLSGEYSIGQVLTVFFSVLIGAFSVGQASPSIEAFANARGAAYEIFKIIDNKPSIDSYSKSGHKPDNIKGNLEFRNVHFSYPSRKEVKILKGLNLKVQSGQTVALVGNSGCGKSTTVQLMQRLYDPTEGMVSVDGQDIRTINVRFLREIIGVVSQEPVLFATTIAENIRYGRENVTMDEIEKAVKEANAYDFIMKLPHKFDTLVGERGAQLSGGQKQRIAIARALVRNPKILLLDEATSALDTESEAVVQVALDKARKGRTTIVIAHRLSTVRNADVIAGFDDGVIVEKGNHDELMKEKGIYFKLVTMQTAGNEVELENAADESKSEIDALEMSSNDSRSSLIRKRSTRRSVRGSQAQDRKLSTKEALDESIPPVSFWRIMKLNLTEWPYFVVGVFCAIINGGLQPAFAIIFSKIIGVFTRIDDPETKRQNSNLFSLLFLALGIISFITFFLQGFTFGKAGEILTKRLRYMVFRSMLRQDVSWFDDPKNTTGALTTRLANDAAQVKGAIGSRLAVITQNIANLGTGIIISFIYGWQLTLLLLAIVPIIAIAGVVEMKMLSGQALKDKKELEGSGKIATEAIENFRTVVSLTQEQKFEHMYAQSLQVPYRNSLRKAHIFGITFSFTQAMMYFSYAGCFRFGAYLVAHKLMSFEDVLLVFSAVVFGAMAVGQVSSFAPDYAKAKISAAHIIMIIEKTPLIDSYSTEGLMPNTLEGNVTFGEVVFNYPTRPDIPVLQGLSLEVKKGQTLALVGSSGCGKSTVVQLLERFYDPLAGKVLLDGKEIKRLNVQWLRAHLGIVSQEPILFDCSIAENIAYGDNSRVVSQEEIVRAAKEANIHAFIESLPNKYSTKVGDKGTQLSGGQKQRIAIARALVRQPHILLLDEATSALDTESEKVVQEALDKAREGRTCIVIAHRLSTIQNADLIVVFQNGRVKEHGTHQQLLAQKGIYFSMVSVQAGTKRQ
Chain of ATP-dependent translocase ABCB1 (P08183 whole entry): as above

NC12CC3CC(CC(C3)C1)C2 [AMANTADINE]
Papp B→A ([1]; MDCK-MDR1, Papp): 15.7 ×10⁻⁶ cm/s | Papp A→B ([2]; MDCK-MDR1, Papp): 18.6 ×10⁻⁶ cm/s

C=C[C@H]1C[N@@]2CC[C@H]1C[C@@H]2[C@@H](O)c1ccnc2ccc(OC)cc12 [QUINIDINE]
Ratio_ATPase activity [3]: 2.54 | efflux ratio ([4]; MDCK-MDR1, Ratio_Papp): 27.2 | Papp B→A ([1]; MDCK-MDR1, Papp): 99 ×10⁻⁶ cm/s | Papp A→B ([2]; MDCK-MDR1, Papp): 3.64 ×10⁻⁶ cm/s

CN(C)CCC(c1ccc(Cl)cc1)c1ccccn1 (racemic) [CHLORPHENIRAMINE]
Ratio_ATPase activity [3]: 0.97 | efflux ratio ([4]; MDCK-MDR1, Ratio_Papp): 1.14 | Papp B→A ([1]; MDCK-MDR1, Papp): 64.2 ×10⁻⁶ cm/s | Papp A→B ([2]; MDCK-MDR1, Papp): 56.2 ×10⁻⁶ cm/s

CC(C)(C)c1ccc(C(O)CCCN2CCC(C(O)(c3ccccc3)c3ccccc3)CC2)cc1 (stereo unspecified) [TERFENADINE]
Papp B→A ([1]; MDCK-MDR1, Papp): 30.6 ×10⁻⁶ cm/s | Papp A→B ([2]; MDCK-MDR1, Papp): 6.56 ×10⁻⁶ cm/s

COc1cccc2c1C(=O)c1c(O)c3c(c(O)c1C2=O)C[C@@](O)(C(=O)CO)C[C@@H]3O[C@H]1C[C@H](N)[C@H](O)[C@H](C)O1 [DOXORUBICIN]
Ratio_ATPase activity [3]: 0.95 | efflux ratio ([4]; MDCK-MDR1, Ratio_Papp): 0.67 | Papp B→A ([1]; MDCK-MDR1, Papp): 0.973 ×10⁻⁶ cm/s | Papp A→B ([2]; MDCK-MDR1, Papp): 1.45 ×10⁻⁶ cm/s

C[C@]12CC[C@H]3[C@@H](CCC4=CC(=O)CC[C@@]43C)[C@@H]1CC[C@@H]2O [TESTOSTERONE]
Ratio_ATPase activity [3]: 1.32 | efflux ratio ([4]; MDCK-MDR1): 0.73 | Papp B→A ([1]; MDCK-MDR1): 66.8 ×10⁻⁶ cm/s | Papp A→B ([2]; MDCK-MDR1): 91.6 ×10⁻⁶ cm/s

COc1cc([C@@H]2c3cc4c(cc3[C@@H](O[C@@H]3O[C@@H]5CO[C@@H](C)O[C@H]5[C@H](O)[C@H]3O)[C@H]3COC(=O)[C@H]23)OCO4)cc(OC)c1O [ETOPOSIDE]
Papp B→A ([1]; MDCK-MDR1, Papp): 6.06 ×10⁻⁶ cm/s | Papp A→B ([2]; MDCK-MDR1, Papp): 2.14 ×10⁻⁶ cm/s

COc1ccc([C@@H]2Sc3ccccc3N(CCN(C)C)C(=O)[C@@H]2OC(C)=O)cc1 [DILTIAZEM]
Ratio_ATPase activity [3]: 2.64 | efflux ratio ([4]; MDCK-MDR1, Ratio_Papp): 1.64 | Papp B→A ([1]; MDCK-MDR1, Papp): 67.6 ×10⁻⁶ cm/s | Papp A→B ([2]; MDCK-MDR1, Papp): 41.3 ×10⁻⁶ cm/s

CCOc1ccc(-c2nc3cc(-c4nc5cc(N6CCN(C)CC6)ccc5[nH]4)ccc3[nH]2)cc1
Ratio_ATPase activity [3]: 0.86 | efflux ratio ([4]; MDCK-MDR1): 7.75 | Papp B→A ([1]; MDCK-MDR1): 2.6 ×10⁻⁶ cm/s | Papp A→B ([2]; MDCK-MDR1): 0.335 ×10⁻⁶ cm/s

O=C1c2c(O)ccc(O)c2C(=O)c2c(NCCNCCO)ccc(NCCNCCO)c21 [MITOXANTRONE]
Papp B→A ([1]; MDCK-MDR1, Papp): 0.644 ×10⁻⁶ cm/s | Papp A→B ([2]; MDCK-MDR1, Papp): 0.191 ×10⁻⁶ cm/s

CN(Cc1cnc2nc(N)nc(N)c2n1)c1ccc(C(=O)N[C@@H](CCC(=O)O)C(=O)O)cc1 [METHOTREXATE]
Ratio_ATPase activity [3]: 0.91 | efflux ratio ([4]; MDCK-MDR1, Ratio_Papp): 0.67 | Papp B→A ([1]; MDCK-MDR1, Papp): 0.706 ×10⁻⁶ cm/s | Papp A→B ([2]; MDCK-MDR1, Papp): 1.05 ×10⁻⁶ cm/s

CC[C@@]1([C@@H]2O[C@@H]([C@H]3O[C@@](O)(CO)[C@H](C)C[C@@H]3C)C[C@@H]2C)CC[C@H]([C@]2(C)CC[C@]3(C[C@H](O)[C@@H](C)[C@@H]([C@@H](C)[C@@H](OC)[C@H](C)C(=O)O)O3)O2)O1 [MONENSIN]
Ratio_ATPase activity [3]: 6.71 | efflux ratio ([4]; MDCK-MDR1): 2.88 | Papp B→A ([1]; MDCK-MDR1): 29.4 ×10⁻⁶ cm/s | Papp A→B ([2]; MDCK-MDR1): 10.2 ×10⁻⁶ cm/s

CC[C@H]1OC(=O)[C@H](C)[C@@H](O[C@H]2C[C@@](C)(OC)[C@@H](O)[C@H](C)O2)[C@H](C)[C@@H](O[C@@H]2O[C@H](C)C[C@H](N(C)C)[C@H]2O)[C@](C)(O)C[C@@H](C)C(=O)[C@H](C)[C@@H](O)[C@]1(C)O [ERYTHROMYCIN]
Papp B→A ([1]; MDCK-MDR1, Papp): 1.35 ×10⁻⁶ cm/s | Papp A→B ([2]; MDCK-MDR1, Papp): 0.094 ×10⁻⁶ cm/s

CNC(=C[N+](=O)[O-])NCCSCc1ccc(CN(C)C)o1 [RANITIDINE]
Ratio_ATPase activity [3]: 1.23 | efflux ratio ([4]; MDCK-MDR1, Ratio_Papp): 1.35 | Papp B→A ([1]; MDCK-MDR1, Papp): 1.95 ×10⁻⁶ cm/s | Papp A→B ([2]; MDCK-MDR1, Papp): 1.44 ×10⁻⁶ cm/s

CN(C)C(=O)Oc1ccc[n+](C)c1 [PYRIDOSTIGMINE]
Ratio_ATPase activity [3]: 0.89 | efflux ratio ([4]; MDCK-MDR1): 1.24 | Papp B→A ([1]; MDCK-MDR1): 1.26 ×10⁻⁶ cm/s | Papp A→B ([2]; MDCK-MDR1): 1.02 ×10⁻⁶ cm/s

COC(=O)[C@H]1[C@H]2C[C@@H]3c4[nH]c5cc(OC)ccc5c4CCN3C[C@H]2C[C@@H](OC(=O)c2cc(OC)c(OC)c(OC)c2)[C@@H]1OC [RESERPINE]
Ratio_ATPase activity [3]: 3.85 | efflux ratio ([4]; MDCK-MDR1, Ratio_Papp): 3.71 | Papp B→A ([1]; MDCK-MDR1, Papp): 25.3 ×10⁻⁶ cm/s | Papp A→B ([2]; MDCK-MDR1, Papp): 6.81 ×10⁻⁶ cm/s

COc1cc2nc(N3CCN(C(=O)c4ccco4)CC3)nc(N)c2cc1OC [PRAZOSIN]
Ratio_ATPase activity [3]: 3.4 | efflux ratio ([4]; MDCK-MDR1, Ratio_Papp): 4.63 | Papp B→A ([1]; MDCK-MDR1, Papp): 66.1 ×10⁻⁶ cm/s | Papp A→B ([2]; MDCK-MDR1, Papp): 14.3 ×10⁻⁶ cm/s

CC(=O)Nc1ccc(OCC(O)CNC(C)C)cc1 (stereo unspecified) [PRACTOLOL]
Ratio_ATPase activity [3]: 1.42 | efflux ratio ([4]; MDCK-MDR1, Ratio_Papp): 1.32 | Papp B→A ([1]; MDCK-MDR1, Papp): 1.64 ×10⁻⁶ cm/s | Papp A→B ([2]; MDCK-MDR1, Papp): 1.24 ×10⁻⁶ cm/s

COC(=O)[C@@H]1[C@H]2C[C@H]3c4[nH]c5ccccc5c4CCN3C[C@@H]2CC[C@@H]1O [YOHIMBINE]
Ratio_ATPase activity [3]: 1.05 | efflux ratio ([4]; MDCK-MDR1, Ratio_Papp): 1.17 | Papp B→A ([1]; MDCK-MDR1, Papp): 50.1 ×10⁻⁶ cm/s | Papp A→B ([2]; MDCK-MDR1, Papp): 42.9 ×10⁻⁶ cm/s

Nc1nc(N)c2nc(-c3ccccc3)c(N)nc2n1
Ratio_ATPase activity [3]: 1.12 | efflux ratio ([4]; MDCK-MDR1, Ratio_Papp): 0.99 | Papp B→A ([1]; MDCK-MDR1, Papp): 18.4 ×10⁻⁶ cm/s | Papp A→B ([2]; MDCK-MDR1, Papp): 18.5 ×10⁻⁶ cm/s

COc1cc2c(cc1OC)CN(CCc1ccc(NC(=O)c3cccc4c(=O)c5cccc(OC)c5[nH]c34)cc1)CC2
Papp B→A ([1]; MDCK-MDR1, Papp): 1.86 ×10⁻⁶ cm/s | Papp A→B ([2]; MDCK-MDR1, Papp): 0.212 ×10⁻⁶ cm/s

CN/C(=N/CCSCc1nc[nH]c1C)NC#N [CIMETIDINE]
Ratio_ATPase activity [3]: 1.31 | efflux ratio ([4]; MDCK-MDR1): 2.19 | Papp B→A ([1]; MDCK-MDR1): 2.69 ×10⁻⁶ cm/s | Papp A→B ([2]; MDCK-MDR1): 1.23 ×10⁻⁶ cm/s

CCC(C)n1ncn(-c2ccc(N3CCN(c4ccc(OCC5COC(Cn6cncn6)(c6ccc(Cl)cc6Cl)O5)cc4)CC3)cc2)c1=O (stereo unspecified) [ITRACONAZOLE]
Ratio_ATPase activity [3]: 1.2 | efflux ratio ([4]; MDCK-MDR1, Ratio_Papp): 0.97 | Papp B→A ([1]; MDCK-MDR1, Papp): 55.2 ×10⁻⁶ cm/s | Papp A→B ([2]; MDCK-MDR1, Papp): 57.1 ×10⁻⁶ cm/s

CN(C)C(=O)C(CCN1CCC(O)(c2ccc(Cl)cc2)CC1)(c1ccccc1)c1ccccc1 [LOPERAMIDE]
Ratio_ATPase activity [3]: 3.75 | efflux ratio ([4]; MDCK-MDR1): 7.77 | Papp B→A ([1]; MDCK-MDR1): 77.6 ×10⁻⁶ cm/s | Papp A→B ([2]; MDCK-MDR1): 9.98 ×10⁻⁶ cm/s

C[C@@H]1C[C@H]2[C@@H]3CCC4=CC(=O)C=C[C@]4(C)[C@@]3(F)[C@@H](O)C[C@]2(C)[C@@]1(O)C(=O)CO [DEXAMETHASONE]
Ratio_ATPase activity [3]: 1.15 | efflux ratio ([4]; MDCK-MDR1, Ratio_Papp): 12.4 | Papp B→A ([1]; MDCK-MDR1, Papp): 53.7 ×10⁻⁶ cm/s | Papp A→B ([2]; MDCK-MDR1, Papp): 4.35 ×10⁻⁶ cm/s

CNS(=O)(=O)Cc1ccc2[nH]cc(CCN(C)C)c2c1
Ratio_ATPase activity [3]: 1.23 | efflux ratio ([4]; MDCK-MDR1, Ratio_Papp): 1.37 | Papp B→A ([1]; MDCK-MDR1, Papp): 1.3 ×10⁻⁶ cm/s | Papp A→B ([2]; MDCK-MDR1, Papp): 0.953 ×10⁻⁶ cm/s

CC[C@]1(O)C[C@@H]2CN(CCc3c([nH]c4ccccc34)[C@@](C(=O)OC)(c3cc4c(cc3OC)N(C)[C@H]3[C@@](O)(C(=O)OC)[C@H](OC(C)=O)[C@]5(CC)C=CCN6CC[C@]43[C@@H]65)C2)C1 [VINBLASTINE]
Ratio_ATPase activity [3]: 4.31 | efflux ratio ([4]; MDCK-MDR1, Ratio_Papp): > 23 | Papp B→A ([1]; MDCK-MDR1, Papp): 23.2 ×10⁻⁶ cm/s | Papp A→B ([2]; MDCK-MDR1, Papp): < 1 ×10⁻⁶ cm/s
